Usually Ki stands for a measure of affinity in units of concentration, obtained from inhibition or displacement. A low value points to tighter binding.

In ChEMBL document CHEMBL1158402, “Homology modeling of MCH1 receptor and validation by docking/scoring and protein-aligned CoMFA” (Eur J Med Chem, 2009) one finds Ki data, which are given here for 28 compounds.

This assay deals with Melanin-concentrating hormone receptor 1 (Homo sapiens, UniProt Q99705). The assay can be described thus: Binding affinity to MCH1 receptor.
Chain of Melanin-concentrating hormone receptor 1 (Q99705 whole entry): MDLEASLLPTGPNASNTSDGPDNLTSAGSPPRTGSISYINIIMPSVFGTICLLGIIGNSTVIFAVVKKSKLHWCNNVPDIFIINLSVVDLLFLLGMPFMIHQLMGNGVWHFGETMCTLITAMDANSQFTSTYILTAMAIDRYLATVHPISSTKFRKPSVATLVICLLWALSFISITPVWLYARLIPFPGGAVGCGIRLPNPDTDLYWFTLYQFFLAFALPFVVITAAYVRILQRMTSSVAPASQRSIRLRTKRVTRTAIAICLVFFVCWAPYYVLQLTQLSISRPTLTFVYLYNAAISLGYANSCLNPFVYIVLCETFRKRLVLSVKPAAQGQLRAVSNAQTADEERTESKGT

Regarding `Cc1ccc(CN2CCC(=Cc3ccc(C(=O)N[C@H](C)c4ccc(Br)cc4)cc3)CC2)c2ccccc12`, the affinity corresponds to a Ki of 1410 nM.
In the case of `C[C@@H](NC(=O)c1ccc(CC2CCN(Cc3ccc4c(c3)OCO4)CC2)cc1)c1ccccc1`, the Ki turned out to be 3470 nM.
In the case of `COc1cccc([C@@H](C)NC(=O)c2ccc(CC3CCN(Cc4ccc5c(c4)OCO5)CC3)cc2)c1` it was 266 nM.
In the case of `C[C@@H](NC(=O)c1ccc(CC2CCN(Cc3ccc4c(c3)OCO4)CC2)cc1)c1ccc(Cl)cc1` it was 108 nM; in that of `CC[C@@H](NC(=O)c1ccc(CC2CCN(Cc3ccc4c(c3)OC(F)(F)O4)CC2)cc1)c1ccc(I)cc1`, 795 nM.
The same measure for `CC[C@@H](NC(=O)c1ccc(CC2CCN(Cc3ccc4cncnc4c3)CC2)cc1)c1ccc(I)cc1`: 30 nM; for `CC[C@@H](NC(=O)c1ccc(CC2CCN(Cc3ccc4cccnc4c3)CC2)cc1)c1ccc(I)cc1`: 5 nM; for `C[C@@H](NC(=O)c1ccc(C=C2CCN(Cc3ccco3)CC2)cc1)c1ccc(Br)cc1`: 15600 nM.
In turn, `O=C(N[C@@H]1CCc2ccccc21)c1ccc(CC2CCN(Cc3ccc4c(c3)OCO4)CC2)cc1` came in with a Ki of 4680 nM.
In the case of `COc1ccccc1[C@@H](C)NC(=O)c1ccc(CC2CCN(Cc3ccc4c(c3)OCO4)CC2)cc1` it was 2060 nM; in that of `C[C@@H](NC(=O)c1ccc(CC2CCN(Cc3ccc4c(c3)OCO4)CC2)cc1)c1ccc(I)cc1`, 51 nM.
The compound `Cc1ccc([C@@H](C)NC(=O)c2ccc(CC3CCN(Cc4ccc5c(c4)OCO5)CC3)cc2)cc1` registered a Ki of 1080 nM.
Regarding `CC[C@@H](NC(=O)c1ccc(CC2CCN(Cc3ccc4ccccc4n3)CC2)cc1)c1ccc(I)cc1`, affinity was put at a Ki of 312 nM.
The compound `C[C@@H](NC(=O)c1ccc(C=C2CCN(Cc3ccccc3)CC2)cc1)c1ccc(Br)cc1` registered a Ki of 2580 nM.
The same measure for `C[C@@H](NC(=O)c1ccc(C=C2CCN(CC3CCCCC3)CC2)cc1)c1ccc(Br)cc1`: 11800 nM; for `CC(NC(=O)c1ccc(CC2CCN(Cc3ccc4c(c3)OCO4)CC2)cc1)c1ccccc1` (stereo not drawn): 4130 nM; for `Cc1ccccc1CNC(=O)c1ccc(CC2CCN(Cc3ccc4c(c3)OCO4)CC2)cc1`: 9330 nM.
For the compound `CCC[C@@H](NC(=O)c1ccc(CC2CCN(Cc3ccc4c(c3)OCO4)CC2)cc1)c1ccc(I)cc1`, the Ki was determined as 191 nM.
Take `CC[C@@H](NC(=O)c1ccc(CC2CCN(Cc3ccc4nccnc4c3)CC2)cc1)c1ccc(I)cc1`: the affinity, expressed as Ki, was 40 nM.
For `C[C@@H](NC(=O)c1ccc(CN2CCN(Cc3ccc4c(c3)OCO4)CC2)cc1)c1ccc(Br)cc1`, the Ki came out at 1950 nM. This Ki lies about 49-fold higher than the previous one.
For the compound `CC1CN(Cc2ccc3c(c2)OCO3)CCN1Cc1ccc(C(=O)N[C@@H](C)c2ccc(Br)cc2)cc1` (stereo partly drawn), the Ki worked out at 4560 nM. Against the preceding compound, the Ki is about 2.3-fold higher.
For `C[C@@H](NC(=O)c1ccc(CC2CCN(Cc3ccc4c(c3)OCO4)CC2)cc1)C1CCCCC1`, the Ki stood at 3570 nM. This Ki and that of the compound before are within 1.5-fold of each other.
With `C[C@@H](NC(=O)c1ccc(C=C2CCN(Cc3ccc(-c4ccccc4)cc3)CC2)cc1)c1ccc(Br)cc1`, the Ki was 5110 nM.
The same measure for `CC(c1ccc(C(=O)N[C@@H](C)c2ccc(Br)cc2)cc1)N1CCN(Cc2ccc3c(c2)OCO3)CC1` (stereo partly drawn): 2330 nM; for `COc1ccc(CN2CCC(=Cc3ccc(C(=O)N[C@H](C)c4ccc(Br)cc4)cc3)CC2)cc1`: 149 nM; for `O=C(Cc1ccc2c(c1)CCO2)c1ccc(CC2CCN(Cc3ccc4c(c3)OCO4)CC2)cc1`: 133 nM.
In the case of `CC[C@@H](NC(=O)c1ccc(CC2CCN(Cc3ccc4c(c3)OCO4)CC2)cc1)c1ccc(I)cc1`, the affinity, expressed as Ki, was 20 nM. Against the preceding compound, the Ki is about 6.7-fold lower.
`O=C(NCc1ccccc1)c1ccc(CC2CCN(Cc3ccc4c(c3)OCO4)CC2)cc1` showed a Ki of 5640 nM.
